The values that follow come from US12398154B2, “Azaquinazoline pan-KRas inhibitors” (Mirati Therapeutics, Inc., priority 2020, dated 2025).

One may read the IC50 as the concentration at which inhibition is half-maximal.

For test [1], the system named is phospho-ERK in A549 (G12S) cells. As to the kind of experiment: Inhibition of KRas-mediated phosphorylation of ERK (in-cell western). In kind it is cell-based. To be noted: Homo sapiens, 3 hours compound, phospho-ERK normalized to GAPDH. Summed up: (§1)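 Fixed-cell immunodetection of ERK phosphorylation following 3 h compound treatment (0.5% DMSO). IC50 derived by 4-parameter fit of GAPDH-normalized signal versus DMSO control.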

Test [2] relates to phospho-ERK in AsPC-1 (G12D) cells. Described as above. In kind it is cell-based. To be noted: Homo sapiens, ASPC1, 3 h, 3 hours compound, phospho-ERK normalized to GAPDH. The gist of the method: as §1
Test [3] deals with phospho-ERK in HCT116 (G13D) cells. Described as above. The class given is cell-based. Particulars: Homo sapiens, HCT-116, 3 hours compound, phospho-ERK normalized to GAPDH. The gist of the method:
as §1

The subject of test [4] is phospho-ERK in MKN1 (WTdep) cells. The test is described as above. In kind it is cell-based. Particulars: Homo sapiens, MKN-1, 3 hours compound, phospho-ERK normalized to GAPDH. Summed up: as §1
The test system of test [5] is phospho-ERK in NCI-H358 (G12C) cells. The description is as above. In kind it is cell-based. To be noted: Homo sapiens, 3 hours compound, phospho-ERK normalized to GAPDH. The gist of the method: as §1
Test [6] concerns phospho-ERK in NCI-H460 (Q61H) cells. The test is described as above. In kind it is cell-based. Particulars: Homo sapiens, NCI-H460, 3 h, 3 hours compound, phospho-ERK normalized to GAPDH. The gist of the method: as §1
The test system of test [7] is phospho-ERK in NCI-H727 (G12V) cells. The description is as above. In kind it is cell-based. To be noted: Homo sapiens, NCI-H727, 3 h, 3 hours compound, phospho-ERK normalized to GAPDH. Summed up:
as §1

The subject of test [8] is phospho-ERK in PSN-1 (G12R) cells. The description is as above. The class given is cell-based. To be noted: Homo sapiens, PSN1, 3 hours compound, phospho-ERK normalized to GAPDH. Summed up: as §1
The next test concerns pERK in MKN1 cells. As to the kind of experiment: Inhibition of KRas phosphorylation of ERK (Cisbio HTRF pERK assay). Particulars: Homo sapiens, MKN-1, 3 h, read-out: Inhibition (HTRF IC50) of KRas-mediated Phosphorylation of ERK, MKN1.
The subject of the next test is pERK in PSN1 cells. The description is as above. Particulars: Homo sapiens, PSN1, 3 h, read-out: Inhibition (HTRF IC50) of KRas-mediated Phosphorylation of ERK, PSN1.
A further test addresses KRas G12D (Homo sapiens, UniProt P01116, G12D). In words: biochemical.
The next test concerns the target KRas G12V (Homo sapiens, UniProt P01116, G12V). In words: biochemical.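 Further: KRas binding measured by TR-FRET displacement at room temperature, IC50 fitted from percent of control values.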
Another test deals with KRas G12R (Homo sapiens, UniProt P01116, G12R). As to the kind of experiment: biochemical.
The next test concerns the target KRas G12A (Homo sapiens, UniProt P01116, G12A). As to the kind of experiment: biochemical.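 Further: binding to KRas measured by TR-FRET displacement after one hour at room temperature, IC50 from a four-parameter fit of percent-of-control values.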
A further test has as its target KRas G12S (Homo sapiens, UniProt P01116, G12S). As to the kind of experiment: biochemical.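 Further: TR-FRET displacement binding to KRas, read after one hour incubation at room temperature, IC50 from four-parameter fit of percent of control.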
Another test has as its target KRas G12C (Homo sapiens, UniProt P01116, G12C). In words: biochemical.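 Further: binding to KRas assessed by TR-FRET displacement after one hour incubation at room temperature, potency fitted from percent-of-control values.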
The target of the next test is KRas WT (Homo sapiens, UniProt P01116). In words: biochemical.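 Further: binding to KRas read as TR-FRET displacement after a one-hour room-temperature incubation, IC50 derived from percent-of-control values.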
The test system of another test is pERK in ASPC1 cells. As to the kind of experiment: Inhibition of KRas phosphorylation of ERK (Cisbio HTRF pERK assay). Particulars: Homo sapiens, ASPC1, read-out: Inhibition (HTRF IC50) of KRas-mediated Phosphorylation of ERK, AsPC-1. Background: In TR-FRET formats the signal depends on donor and acceptor labels being close together.
The subject of another test is pERK in H727 cells. The description is as above. To be noted: Homo sapiens, NCI-H727, read-out: Inhibition (HTRF IC50) of KRas-mediated Phosphorylation of ERK, H727.

KRas G12D, sequence (P01116 1-169 isoform P01116-2 G12D): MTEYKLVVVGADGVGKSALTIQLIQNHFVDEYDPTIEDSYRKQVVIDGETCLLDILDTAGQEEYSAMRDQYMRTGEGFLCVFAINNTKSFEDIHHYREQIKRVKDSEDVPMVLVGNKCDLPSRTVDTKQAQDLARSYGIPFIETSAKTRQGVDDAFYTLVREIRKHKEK
KRas G12V, sequence (P01116 1-169 isoform P01116-2 G12V): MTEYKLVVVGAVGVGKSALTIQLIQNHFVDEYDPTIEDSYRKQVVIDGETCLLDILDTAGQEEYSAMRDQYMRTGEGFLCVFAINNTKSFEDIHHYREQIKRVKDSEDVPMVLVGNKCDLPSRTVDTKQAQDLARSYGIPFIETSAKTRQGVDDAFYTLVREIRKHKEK
KRas G12R, sequence (P01116 1-169 isoform P01116-2 G12R): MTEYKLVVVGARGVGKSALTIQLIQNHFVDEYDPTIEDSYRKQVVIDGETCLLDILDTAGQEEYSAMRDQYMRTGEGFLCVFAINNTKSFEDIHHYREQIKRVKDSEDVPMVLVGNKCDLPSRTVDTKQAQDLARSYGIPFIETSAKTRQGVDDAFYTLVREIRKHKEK
KRas WT, sequence (P01116 1-169 isoform P01116-2): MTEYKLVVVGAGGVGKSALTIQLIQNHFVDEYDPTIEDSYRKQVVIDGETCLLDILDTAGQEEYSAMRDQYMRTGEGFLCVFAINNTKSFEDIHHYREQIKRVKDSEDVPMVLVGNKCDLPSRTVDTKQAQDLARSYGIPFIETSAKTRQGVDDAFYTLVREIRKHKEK
KRas G12C, sequence (P01116 1-169 isoform P01116-2 G12C): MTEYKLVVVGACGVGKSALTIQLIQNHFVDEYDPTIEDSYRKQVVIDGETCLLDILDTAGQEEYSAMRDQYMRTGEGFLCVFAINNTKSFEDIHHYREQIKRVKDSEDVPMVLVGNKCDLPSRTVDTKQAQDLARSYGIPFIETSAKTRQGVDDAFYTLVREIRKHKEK
KRas G12A, sequence (P01116 1-169 isoform P01116-2 G12A): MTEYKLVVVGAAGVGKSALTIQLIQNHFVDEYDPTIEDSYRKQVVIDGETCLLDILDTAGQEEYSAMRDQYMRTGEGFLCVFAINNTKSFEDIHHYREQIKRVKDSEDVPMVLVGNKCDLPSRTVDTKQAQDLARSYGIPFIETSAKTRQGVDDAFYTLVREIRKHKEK
KRas G12S, sequence (P01116 1-169 isoform P01116-2 G12S): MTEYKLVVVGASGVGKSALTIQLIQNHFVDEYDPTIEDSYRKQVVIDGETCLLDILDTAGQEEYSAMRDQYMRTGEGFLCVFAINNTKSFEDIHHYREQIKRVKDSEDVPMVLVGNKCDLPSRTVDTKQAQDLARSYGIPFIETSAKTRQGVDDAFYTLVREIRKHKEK

Take `CCc1c(F)ccc2cccc(-c3ncc4c(N5CCC[C@@](C)(O)C5)nc(OC[C@@]56CCCN5C[C@H](F)C6)nc4c3F)c12` [Example 16, (R)-1-(7-(8-ethyl-7-fluoronaphthalen-1-yl)-8-fluoro-2-(((2R,7aS)-2-fluorohexahydro-1H-pyrrolizin-7a-yl)methoxy)pyrido[4,3-d]pyrimidin-4-yl)-3-methylpiperidin-3-ol]: the IC50 in test [1] was 1760 nM; in test [2] it was 654 nM; in [3], 2180 nM; in [4] it was 802 nM; in [5] it was 1180 nM; in [6], 113 nM. In addition, the 50% inhibitory concentration (IC50) in test [7] is at least 10000 nM; in test [8], at least 10000 nM; in the test on pERK in MKN1 cells it was 275 nM; in the test with pERK in PSN1 cells, at least 10000 nM.

Turning to `C#Cc1c(F)ccc2cc(O)cc(-c3ncc4c(N5CCCC6(CNC(=O)C6)C5)nc(OC[C@@]56CCCN5C[C@H](F)C6)nc4c3F)c12` (stereo partly shown) [Example 24], the IC50 in [1] is at least 10000 nM; in test [2], 1680 nM; in [3], 1370 nM; in test [4], 406 nM; in test [5], 454 nM; in test [6], 2820 nM. For the same molecule, the IC50 in test [7] is 4720 nM; in test [8], 3690 nM; at KRas G12D, at most 2 nM; against KRas G12V it was at most 2 nM; at KRas G12R, at most 2 nM; on KRas G12A it was at most 2 nM. Also, the concentration for half-maximal inhibition (IC50) on KRas G12S, against KRas G12C and against KRas WT was at most 2 nM in each case.

Turning to `CC1(O)CCCN(c2nc(OCC34CCCN3CCC4)nc3c(F)c(-c4cc(O)cc(Cl)c4C4CC4)ncc23)C1` (stereo not shown) [Example 71, 1-(7-(3-chloro-2-cyclopropyl-5-hydroxyphenyl)-8-fluoro-2-((tetrahydro-1H-pyrrolizin-7a(5H)-yl)methoxy)pyrido[4,3-d]pyrimidin-4-yl)-3-methylpiperidin-3-ol], the IC50 in test [1] was at least 10000 nM; in test [2] it was 4730 nM; in test [3] it was 1950 nM; in test [4] it was 140 nM; in [5], 361 nM; in [6], 2170 nM. The IC50 is 2240 nM in test [7]; at least 10000 nM in test [8]; 3 nM at KRas G12D; at most 2 nM against KRas G12V; 6 nM at KRas G12R; 2100 nM in the test on pERK in ASPC1 cells. For the same molecule, in the test with pERK in H727 cells, the IC50 was 1920 nM.

As to `C[C@@H]1C[C@@H]1c1c(Cl)cc(O)cc1-c1ncc2c(N3CCCC(C)(O)C3)nc(OCC34CCCN3CCC4)nc2c1F` (stereo partly drawn) [Example 132, 1-(7-(3-chloro-5-hydroxy-2-((1S,2R)-2-methylcyclopropyl)phenyl)-8-fluoro-2-((tetrahydro-1H-pyrrolizin-7a(5H)-yl)methoxy)pyrido[4,3-d]pyrimidin-4-yl)-3-methylpiperidin-3-ol], the IC50 in test [1] was at least 10000 nM; in [2], 104 nM; in [3], at least 10000 nM; in test [4] it was 27 nM; in [5], 131 nM; in test [6], 206 nM. Also, the IC50 in test [7] was at least 10000 nM; in test [8], at least 10000 nM; against KRas G12D it was 9 nM; against KRas G12V, 5 nM; on KRas G12R, 6 nM; with pERK in ASPC1 cells, 623 nM. For the same molecule, the concentration for half-maximal inhibition (IC50) in the test with pERK in H727 cells came to 912 nM.

`CCc1c(F)ccc2cc(O)cc(-c3ncc4c(NCc5cc[nH]n5)nc(OC[C@@]56CCCN5C[C@H](F)C6)nc4c3F)c12` [Example 159, 4-(4-(((1H-pyrazol-3-yl)methyl)amino)-8-fluoro-2-(((2R,7aS)-2-fluorohexahydro-1H-pyrrolizin-7a-yl)methoxy)pyrido[4,3-d]pyrimidin-7-yl)-5-ethyl-6-fluoronaphthalen-2-ol]: the half-maximal inhibitory concentration (IC50) in [1] was 4070 nM; in test [2] it was at least 10000 nM; in test [3], 2110 nM; in test [4], 133 nM; in test [5], 139 nM; in [6], 1510 nM. Besides, the IC50 was 2000 nM in [7]; at least 10000 nM in test [8]; 39 nM against KRas G12D; 3 nM on KRas G12V; 5 nM on KRas G12R.

`CCc1c(F)ccc2cc(O)cc(-c3ncc4c(NCc5cn[nH]c5)nc(OC[C@@]56CCCN5C[C@H](F)C6)nc4c3F)c12` [Example 160, 4-(4-(((1H-pyrazol-4-yl)methyl)amino)-8-fluoro-2-(((2R,7aS)-2-fluorohexahydro-1H-pyrrolizin-7a-yl)methoxy)pyrido[4,3-d]pyrimidin-7-yl)-5-ethyl-6-fluoronaphthalen-2-ol]: the half-inhibitory concentration (IC50) in test [1] was determined as 974 nM; in test [2] it was 5520 nM; in test [3] it was 1600 nM; in test [4], 146 nM; in test [5], 149 nM; in test [6] it was 471 nM. The concentration for half-maximal inhibition (IC50) in test [7] is 727 nM; in test [8], at least 10000 nM; against KRas G12D, 15 nM; on KRas G12V it was at most 2 nM; on KRas G12R it was at most 2 nM.

For `CCc1c(F)ccc2cc(O)cc(-c3ncc4c(NCc5c[nH]cn5)nc(OC[C@@]56CCCN5C[C@H](F)C6)nc4c3F)c12` [Example 164, 4-(4-(((1H-imidazol-4-yl)methyl)amino)-8-fluoro-2-(((2R,7aS)-2-fluorohexahydro-1H-pyrrolizin-7a-yl)methoxy)pyrido[4,3-d]pyrimidin-7-yl)-5-ethyl-6-fluoronaphthalen-2-ol], the half-maximal inhibitory concentration (IC50) was at least 10000 nM in test [1]; at least 10000 nM in test [2]; at least 10000 nM in [3]; 207 nM in test [4]; 602 nM in [5]; 6820 nM in [6]. Further, the IC50 in test [7] was at least 10000 nM; in test [8], at least 10000 nM; at KRas G12D, 28 nM; against KRas G12V, 3 nM; against KRas G12R, 3 nM.

Turning to `CCc1c(F)ccc2cc(O)cc(-c3ncc4c(NCCCc5ccncc5)nc(OC[C@@]56CCCN5C[C@H](F)C6)nc4c3F)c12` [Example 176, 5-ethyl-6-fluoro-4-(8-fluoro-2-(((2R,7aS)-2-fluorohexahydro-1H-pyrrolizin-7a-yl)methoxy)-4-((3-(pyridin-4-yl)propyl)amino)pyrido[4,3-d]pyrimidin-7-yl)naphthalen-2-ol], the half-inhibitory concentration (IC50) is at least 10000 nM in test [1]; at least 10000 nM in test [2]; at least 10000 nM in test [3]; 701 nM in test [4]; 1250 nM in test [5]; 3510 nM in test [6]. In addition, the IC50 in test [7] is 3950 nM; in test [8] it was at least 10000 nM; at KRas G12D it was 108 nM; against KRas G12V, 20 nM; at KRas G12R it was 30 nM.

Consider `CCc1c(F)ccc2cc(O)cc(-c3ncc4c(OCCCc5cccnc5)nc(OC[C@@]56CCCN5C[C@H](F)C6)nc4c3F)c12` [Example 298, 5-ethyl-6-fluoro-4-(8-fluoro-2-(((2R,7aS)-2-fluorohexahydro-1H-pyrrolizin-7a-yl)methoxy)-4-(3-(pyridin-3-yl)propoxy)pyrido[4,3-d]pyrimidin-7-yl)naphthalen-2-ol], for which the 50% inhibitory concentration (IC50) is at least 10000 nM in test [1]; at least 10000 nM in [2]; at least 10000 nM in [3]; 2710 nM in test [4]; 5010 nM in test [5]; at least 10000 nM in test [6]. In addition, the IC50 was at least 10000 nM in test [7]; at least 10000 nM in test [8]; 1520 nM against KRas G12D; 133 nM at KRas G12V; 99 nM at KRas G12R.
